Test results as given in patent publication US20140193827A1 (TEVA PHARMACEUTICAL INDUSTRIES, LTD., priority 2013, published 2014).

System: GA-primed murine splenocytes
Assay: ANOVA-based pattern identification method
Format: cell-based, mouse
Conditions: UP IN generic ONLY
From the text: We sought to identify probes matching specific patterns of expression across experimental conditions using a technique that referred to as the ANOVA-based Pattern Identification Method.
To carry out the analysis in a general manner, we computed the 6 p-values required to do pairwise comparisons of all 4 conditions for all probes using the ANOVA1 function in MATLAB. We then identified sets of probes matching the desired pattern. In the example above, probes were identified as being only affected by PG if their 6 pairwise comparison pvalues matched the following pattern (pGA-PG<0.05, pPG-reference standard<0.05, pPG-Medium<0.05, pGAMedium>0.05, pGA-reference standard>0.05, preference standard-Medium>0.05).

Substance: glatiramer acetate [GA]
- 4930544L04RIK expression: 5.873
- 4933437N03RIK expression: 6.099
- 5330403O16RIK expression: 5.716
- 5730472N09RIK expression: 7.649
- 5830457O10RIK expression: 9.145
- 5930400G23RIK expression: 5.875
- 6330579M01RIK expression: 5.814
- 6430709H04RIK expression: 5.642
- 6720407G21RIK expression: 5.543
- 8030455F02RIK expression: 5.766
- 9030624J02RIK expression: 9.517
- 9130011J15RIK expression: 8.444
- 9330104G04RIK expression: 5.71
- 9330158H04RIK expression: 5.699
- 9330183F02RIK expression: 5.986
- 9430003J03RIK expression: 6.25
- 9430078K10RIK expression: 6.125
- 9430088N01RIK expression: 6.673
- 11110020P15RIK expression: 12.88
- A4GALT expression: 5.801
- A230005A19RIK expression: 5.83
- A230084A06RIK expression: 5.804
- ADAL expression: 6.367
- ADAR expression: 8.858
- ADPRHL2 expression: 6.783
- AI844366 expression: 5.793
- AKT2 expression: 5.919
- ALOX15 expression: 5.968
- ARFGAP2 expression: 9.429
- ARVCF expression: 5.727
- ATG3 expression: 5.593
- ATP9B expression: 5.92
- ATP13A1 expression: 9.018
- ATPBD3 expression: 6.569
- B930062B16RIK expression: 6.038
- BC017612 expression: 7.394
- BC031853 expression: 6.952
- BC037704 expression: 7.193
- BC040758 expression: 6.077
- BCKDK expression: 9.485
- BCL2L2 expression: 5.792
- BCL2L12 expression: 6.997
- BLCAP expression: 8.164
- BPHL expression: 5.714
- BTRC expression: 7.946
- BZRPL1 expression: 6.203
- C130040D06RIK expression: 5.711
- C230062L16RIK expression: 6.189
- C230092H20RIK expression: 5.902
- C730048C13RIK expression: 5.941
- C920004C08RIK expression: 11.38
- CAPZB expression: 5.854
- CAR6 expression: 5.68
- CBARA1 expression: 7.517
- CCL2 expression: 5.834
- CD44 expression: 5.953
- CD151 expression: 7.186
- CDC42BPB expression: 7.153
- CDCA1 expression: 5.663
- CEBPE expression: 6.204
- CENTD3 expression: 7.76
- CHGA expression: 5.756
- CHRM2 expression: 5.589
- CLCN1 expression: 5.787
- CLCNKB expression: 5.956
- CLEC4A3 expression: 6.547
- CNGA4 expression: 6.005
- CNTLN expression: 5.647
- COBLL1 expression: 7.08
- COL4A1 expression: 6.209
- COQ6 expression: 9.965
- COQ9 expression: 8.284
- COTL1 expression: 12.24
- CTNNA3 expression: 5.701
- CXCL14 expression: 5.622
- CYGB expression: 6.119
- D0HXS9928E expression: 9.848
- D11WSU47E expression: 7.068
- D130017N08RIK expression: 6.061
- D430013G08RIK expression: 5.658
- DACH1 expression: 5.874
- DBF4 expression: 8.57
- DHDH expression: 7.454
- DNAHC17 expression: 5.838
- DNM3 expression: 5.71
- DUS2L expression: 6.953
- E030016N13RIK expression: 6.199
- E330037I15RIK expression: 6.256
- EFCAB6 expression: 5.61
- EG665903 expression: 5.547
- ENAH expression: 5.919
- EPM2A expression: 5.76
- F830116E18RIK expression: 5.893
- FAHD1 expression: 7.177
- FAM123A expression: 5.862
- FBXL15 expression: 7.284
- FBXL21 expression: 5.656
- FGR expression: 6.972
- FOXE1 expression: 5.777
- FOXP4 expression: 6.284
- FRY expression: 5.74
- GABRG1 expression: 5.55
- GM628 expression: 5.746
- GPAA1 expression: 7.442
- GPR106, LGR8, GPCR expression: 5.814
- GSTK1 expression: 8.386
- GYPA expression: 6.898
- HIST2H2AA1 expression: 6.224
- HMGCL expression: 7.958
- HOXC10 expression: 6.132
- HSD3B2 expression: 5.776
- HTATIP2 expression: 8.787
- INTS7 expression: 9.311
- ISCA1 expression: 9.378
- ITFG2 expression: 8.148
- ITGA2B expression: 6.451
- JPH1 expression: 5.671
- KCNC3 expression: 5.962
- KIF17 expression: 5.897
- KLHDC3 expression: 7.853
- KREMEN2 expression: 6.223
- KRTCAP2 expression: 12.5338
- LOC223628 expression: 5.598
- LOC277049 expression: 5.915
- LOC277236 expression: 5.977
- LOC332300 expression: 6.243
- LOC380636 expression: 5.566
- LOC380723 expression: 5.812
- LOC382813 expression: 5.786
- LOC383439 expression: 5.708
- LOC385989 expression: 5.996
- LOC546088 expression: 5.782
- LOC677528 expression: 9.498
- LOC100045460 expression: 5.645
- LOC100046781 expression: 6.089
- LOC100047194 expression: 5.921
- LOC100047603 expression: 6.184
- LOC100048331 expression: 5.894
- LY96 expression: 7.768
- LYSMD4 expression: 6.812
- MAGEA9 expression: 5.817
- MAGEE2 expression: 5.808
- MAK10 expression: 9.516
- MAPKAPK2 expression: 10.02
- MCPT6 expression: 5.782
- MFSD7A expression: 5.961
- MKNK1 expression: 6.113
- MLANA expression: 5.769
- MOCO5 expression: 6.424
- MS4A7 expression: 6.506
- MTAP1S expression: 8.992
- MTRR expression: 6.473
- NAPA expression: 7.994
- NAPRT1 expression: 6.46
- NCDN expression: 8.408
- NEK4 expression: 5.969
- NFE2L1 expression: 9.753
- NFKB1 expression: 11.57
- NRXN1 expression: 5.957
- NSF expression: 9.95
- OLFR228 expression: 5.655
- OLFR312 expression: 5.726
- OLFR506 expression: 5.636
- OLFR519 expression: 5.669
- OLFR907 expression: 5.644
- OLFR1155 expression: 5.789
- PALLD expression: 5.641
- PALM expression: 6.421
- PCBD2 expression: 10.32
- PCDHAC1 expression: 5.69
- PCOLN3 expression: 7.171
- PDGFB expression: 6.243
- PEF1 expression: 9.307
- PKIA expression: 6.356
- PKIB expression: 5.803
- PLD1 expression: 5.927
- PRDX2 expression: 11.61
- PRPF3 expression: 10.04
- PSCD2 expression: 6.134
- PSG22 expression: 5.693
- PTPRF expression: 5.709
- R74862 expression: 6.215
- RALGPS2 expression: 8.862
- RASAL2 expression: 6.006
- RBPMS expression: 6.068
- REXO1 expression: 6.854
- RHOF expression: 9.948
- RHOT1 expression: 9.777
- RNF40 expression: 6.148
- RNF183 expression: 5.994
- RPUSD3 expression: 6.756
- RSC1A1 expression: 7.697
- SAMD10 expression: 6.984
- SARDH expression: 5.837
- SCAVENGER RECEPTOR expression: 6.161
- SCN1B expression: 5.97
- SFRS2IP expression: 9.233
- SGSM3 expression: 7.217
- SLC7A8 expression: 6.268
- SLC13A5 expression: 5.704
- SLC22A21 expression: 5.775
- SLC26A6 expression: 6.454
- SMG7 expression: 9.655
- SNCA expression: 5.875
- SOX7 expression: 6.163
- SPEN expression: 6.891
- SPIN2 expression: 6.355
- SYMPK expression: 8.402
- SYN1 expression: 5.985
- TAF3 expression: 7.199
- TCEAL5 expression: 5.768
- TCF7L2 expression: 5.717
- TFIP11 expression: 8.095
- TFRC expression: 9.789
- TG737RPW expression: 6.301
- THOC1 expression: 8.813
- TJAP1 expression: 8.168
- TMEM43 expression: 9.133
- TNXB expression: 5.703
- TRABD expression: 8.509
- TRIM2 expression: 5.778
- TRIM15 expression: 5.62
- TRPV4 expression: 5.895
- TRUB1 expression: 8.23
- TSNAXIP1 expression: 5.811
- TTC4 expression: 8.309
- TTC15 expression: 7.191
- UACA expression: 6.1
- UAP1 expression: 8.168
- UBE2A expression: 7.652
- UBE2E2 expression: 6.42
- UGP2 expression: 7.767
- USP10 expression: 6.432
- USP36 expression: 8.5
- V1RC23 expression: 5.692
- VGLL2 expression: 5.853
- WIZ expression: 7.206
- WNK2 expression: 5.719
- XPO5 expression: 7.592
- ZBTB6 expression: 6.029
- ZEB2 expression: 5.602
- ZFP162 expression: 7.652
- ZFP239 expression: 7.228
- ZFP563 expression: 5.809
- ZFP748 expression: 5.815
- ZMAT3 expression: 7.615
- ZMIZ1 expression: 7.099
- control_ILMN_1378661 expression: 5.718
- control_ILMN_1378677 expression: 5.994
- control_ILMN_1378911 expression: 5.7
- AMBRA1 expression (first AMBRA1 line (r790)): 5.749
- CAMK1 expression (first CAMK1 line (r746)): 6.416
- AMBRA1 expression (second AMBRA1 line (r797)): 8.755
- CAMK1 expression (second CAMK1 line (r762)): 5.514
